Values of other authors, collected in patent US7709454B2, “Methods and compositions for inhibiting tumorigenesis” (New York University, priority 1997, dated 2010).
Where two headings read alike, the source gives them in different places.

How the values were obtained:
[1] = tested on: Nude Harlan Sprague-Dawley Mice/lung (A-549, Calu-1) tumors; conditions: cited from earlier work
Glioma cell lines = conditions: cited from earlier work
A/J mice lung adenomas = conditions: 50 mg/kg/d; cited from earlier work
[2] = tested on: Athymic mice/colon (DLD-1), H-Ras and K-Ras Fibroblast tumors; conditions: 10, 50 mg/kg/d; cited from earlier work
[3] = tested on: Various human tumor cell lines; conditions: cited from earlier work

## COC(=O)[C@H](CCSC)NC(=O)c1ccc(NC[C@@H](N)CS)cc1-c1ccccc1 [FTI-277]
[1]; 50 mg/kg/d, lung (A-549, Calu-1) tumors, NIH3T3
  GROWTH INHIBITION: 80%
Glioma cell lines
  IC50: 2000 to 15500 nM

## CSCC[C@H](NC(=O)c1ccc(NC[C@@H](N)CS)cc1-c1ccccc1)C(=O)O [FTI-276]
[1]; 70 mg/kg/d
  GROWTH INHIBITION: 70%-94%
[1]; 10, 50, 100 mg/kg/d
  GROWTH INHIBITION: 75%
A/J mice lung adenomas
  GROWTH INHIBITION: 58%

## O=C(Cc1cc[n+]([O-])cc1)N1CCN(C2c3ccc(Cl)cc3CCc3cc(Br)cnc32)CC1 (stereo not shown) [SCH59228]
[2]
  GROWTH INHIBITION: >90%

## O=C(Cc1ccncc1)N1CCC(=C2c3ccc(Cl)cc3CCc3cccnc32)CC1 [SCH44342]
[3]
  IC50: 1000 nM
